This is an account of results in publication PMC3625111 (Biochemical Pharmacology, 2013).

Entries after “also recorded” stand apart in the source; their conditions may differ. Where two headings read alike, the source gives them in different places.

For series [1] the following is noted: cited from earlier work; for brain uptake: ref not given.
The test system of series [2] is SH-SY5Y cells. Nature of the series: Hsp20 phosphorylation assay (western blot, phospho-serine 16). It counts as cell-based. The conditions noted are these: for Hsp20 phosphorylation (serine 16): rolipram 10 μM, moexipril, 7, 8 at 50 μM, 0.5, 1, 2 h. As for the experimental part: Compounds were diluted in media and added to cells for 0.5, 1 and 2 h prior to harvesting using 3T3 lysis buffer (1% Triton X-100, 50 mM Hepes, pH 7.2, 10 mM EDTA and 100 mM NaH2PO4) supplemented with protease inhibitor Mini-Complete (Roche) and phosphatase inhibitor PHOS-stop (Roche, UK). Hsp20 expression was analysed using standard SDS-PAGE and Western Blotting techniques using the phospho-Hsp20 antibody (ab58522 Abcam, UK) and alpha-tubulin-HRP antibody (ab40742 Abcam, UK) as the loading control. Western blotting for PDE4s was undertaken using antibodies previously described by us.
A general note: A western blot detects proteins with antibodies after separation by electrophoresis.

Series [3] addresses T1, PDE4B2 (Homo sapiens, UniProt Q07343).
T1 construct: expressed in transfected cells; host or cells: HEK293
The series is described as follows: PDE activity two-step radioassay, PDE4B2 lysate. It counts as biochemical. The conditions noted are these: for IC50: PDE4B2 from transfected HEK293 lysate, cAMP hydrolysis, n = 3. On the procedure: (§1) Expression plasmids encoding human PDE4 were as previously described by us [[27,28]]. The plasmids were purified from Escherichia coli using the Maxi-prep system (Qiagen, UK). For transient transfections, HEK293 cells were seeded at a 1:3 ratio into culture flasks 24 h before transfection so that cells were ~60% confluent by the time of transfection. Transfections were carried out using PolyFect® transfection reagent (Qiagen, UK) in accordance with manufacturer's instructions.
(§2) Samples were then frozen on solid CO2, thawed and then manually homogenised, followed by passage through a 26-gauge needle several times to ensure complete cell lysis. Cells were centrifuged at 13,000 rpm for 10 min to remove any unbroken cells, and the resulting supernatant was frozen in solid CO2 and stored at −80 °C until required. For experimentation, the protein concentration of whole-cell lysate from transfected and mock-transfected (vector only) cells was equalised (typically to 1 μg/μl). Protein concentration was determined through Bradford Assay using bovine serum albumin as standard.
PDE activity was determined using a two-step radioassay procedure as described previously. Activities for each PDE subtype were related to a non-drug treated sample (100% control) over an increasing dose of the indicated compounds. IC50 values were calculated using.

Series [4] deals with SH-SY5Y cells stably expressing Epac1-camps. Nature of the series: FRET imaging of cAMP with Epac1-camps biosensor. It counts as cell-based. The conditions noted are these: added after forskolin 5 μM. On the procedure:
HEK293 cells were maintained in DMEM containing 10% (v/v) FBS, 2 mM L-glutamine and 1% penicillin/streptomycin. SH-SY5Y cells were maintained in DMEM:F12 (1:1) containing 10% (v/v) FBS, 2 mM L-glutamine and 1% penicillin/streptomycin. For FRET analysis SH-SY5Y cells stably expressing Epac1-camps under G418 selection (500 μg/ml) were seeded onto 22 mm round glass coverslips and maintained in a 6 well plate 24 h prior to use.
FRET imaging experiments were performed on SH-SY5Y-Epac1-camps stables. Cells were maintained at room temperature in DPBS (Invitrogen, UK), with added CaCl2 and MgCl2, and imaged on an inverted microscope (Olympus IX71) with a PlanApoN, 60X, NA 1.42 oil, 0.17/FN 26.5, objective (Japan). The microscope was equipped with a CCD camera (cool SNAP HQ monochrome, Photometrics), and a beam-splitter optical device (Dual-channel simultaneous-imaging system, DV^2 mag biosystem (ET-04-EM)). Imaging acquisition and analysis software used was Meta imaging series 7.1, Metafluor, and processed using ImageJ (http://rsb.info.nih.gov/ij/). FRET changes were measured as changes in the background-subtracted 480/545-nm fluorescence emission intensity on excitation at 430 nm and expressed as either R/R0, where R is the ratio at time t and R0 is the ratio at time = 0 s, or ΔR/R0, where ΔR = R − R0. Values are expressed as the mean ± SEM.

Series [5] relates to porcine serum ACE. Also noted: method as in PMID 3508548, PMID 2999531. The conditions noted are these: vs porcine serum ACE; cited from earlier work.
For series [6], the target named is beta-lactamase (Escherichia coli, UniProt P00811). Nature of the series: beta-lactamase inhibition (aggregation counter-screen). The series is classed as biochemical. To be noted: at 10 or 100 μM. (Counterscreens check selectivity or assay interference.)
Chain of beta-lactamase (P00811 20-377): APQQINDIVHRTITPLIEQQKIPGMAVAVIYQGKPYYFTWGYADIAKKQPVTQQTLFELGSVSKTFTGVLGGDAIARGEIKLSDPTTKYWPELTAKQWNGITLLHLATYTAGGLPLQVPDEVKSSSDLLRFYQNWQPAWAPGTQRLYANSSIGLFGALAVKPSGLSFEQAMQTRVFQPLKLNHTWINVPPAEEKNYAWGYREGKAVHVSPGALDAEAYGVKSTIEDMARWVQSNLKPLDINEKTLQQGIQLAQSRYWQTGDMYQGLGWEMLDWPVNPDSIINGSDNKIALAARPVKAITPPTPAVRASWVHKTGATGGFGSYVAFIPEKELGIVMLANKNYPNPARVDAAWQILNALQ
The nature of series [7]: Colloidal aggregation by dynamic light scattering. The series is classed as physicochemical.
For series [8], the target named is T2, PDE8A (Homo sapiens, UniProt O60658).
T2 construct: expressed in transfected cells; host or cells: HEK293
T2 sequence (O60658 whole entry, species assumed): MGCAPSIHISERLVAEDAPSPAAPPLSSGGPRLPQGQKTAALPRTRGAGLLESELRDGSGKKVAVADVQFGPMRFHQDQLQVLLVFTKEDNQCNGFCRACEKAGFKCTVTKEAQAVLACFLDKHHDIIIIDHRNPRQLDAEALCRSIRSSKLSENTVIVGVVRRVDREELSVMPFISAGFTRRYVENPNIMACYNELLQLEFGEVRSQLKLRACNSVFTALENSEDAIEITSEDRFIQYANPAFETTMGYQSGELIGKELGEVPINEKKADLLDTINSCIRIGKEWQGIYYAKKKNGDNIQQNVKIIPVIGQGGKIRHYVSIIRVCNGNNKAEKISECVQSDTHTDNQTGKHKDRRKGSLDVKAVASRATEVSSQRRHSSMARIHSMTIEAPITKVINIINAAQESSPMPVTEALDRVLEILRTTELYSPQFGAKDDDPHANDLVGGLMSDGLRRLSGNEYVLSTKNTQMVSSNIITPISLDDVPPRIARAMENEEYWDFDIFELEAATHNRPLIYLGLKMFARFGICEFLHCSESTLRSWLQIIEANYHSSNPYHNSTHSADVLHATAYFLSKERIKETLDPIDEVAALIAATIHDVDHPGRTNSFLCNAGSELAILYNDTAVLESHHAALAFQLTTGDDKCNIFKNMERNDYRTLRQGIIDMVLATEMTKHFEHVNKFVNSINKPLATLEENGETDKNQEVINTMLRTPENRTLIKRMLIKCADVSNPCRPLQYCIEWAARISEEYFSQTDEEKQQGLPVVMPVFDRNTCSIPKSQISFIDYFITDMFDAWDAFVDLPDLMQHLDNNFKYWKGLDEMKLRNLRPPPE
Nature of the series: PDE activity two-step radioassay, PDE8A lysate. The conditions noted are these: dose response, Fig. 3C. The series is classed as biochemical. On the procedure: as §2, with “Cells (~90–100% confluent) were transfected for 48 h with cDNA encoding PDE4B2, PDE4A5, PDE4D5, PDE8A and PDE5, washed with PBS and harvested by using a cell scraper in KHEM buffer (50 mM KCl, 50 mM HEPES; pH 7.2, 10 mM EGTA, 1.92 mM MgCl2, 1 mM dithiothreitol (DTT)) supplemented with protease inhibitor Mini-Complete (Roche, UK). Samples” for “Samples”
(§3) PDE activity was determined using a two-step radioassay procedure as described previously. Activities for each PDE subtype were related to a non-drug treated sample (100% control) over an increasing dose of the indicated compounds. IC50 values were calculated using. In all cases, the transfected PDE accounted for over 97% of the total PDE activity when compared with the untransfected control lysates.

On the set-up of series [9]: method as in printed. The conditions noted are these: oral dose of 15 mg, ref not given, cited from earlier work.
Series [10] concerns the target T3, PDE5 (Homo sapiens, UniProt O76074).
T3 construct: expressed in transfected cells; host or cells: HEK293
The series is described as follows: PDE activity two-step radioassay, PDE5 lysate. It counts as biochemical. To be noted: dose response, Fig. 3C. On the procedure:
as §2, with “Cells (~90–100% confluent) were transfected for 48 h with cDNA encoding PDE4B2, PDE4A5, PDE4D5, PDE8A and PDE5, washed with PBS and harvested by using a cell scraper in KHEM buffer (50 mM KCl, 50 mM HEPES; pH 7.2, 10 mM EGTA, 1.92 mM MgCl2, 1 mM dithiothreitol (DTT)) supplemented with protease inhibitor Mini-Complete (Roche, UK). Samples” for “Samples”
as §3

On the set-up of series [11]: method as in PMID 3508548, PMID 2999531. To be noted: use in hypertension; cited from earlier work.
In series [12] the target is T4, PDE4D5 (Homo sapiens, UniProt Q08499).
T4 construct: expressed in transfected cells; host or cells: HEK293
T4 sequence (Q08499 1-745 isoform Q08499-6): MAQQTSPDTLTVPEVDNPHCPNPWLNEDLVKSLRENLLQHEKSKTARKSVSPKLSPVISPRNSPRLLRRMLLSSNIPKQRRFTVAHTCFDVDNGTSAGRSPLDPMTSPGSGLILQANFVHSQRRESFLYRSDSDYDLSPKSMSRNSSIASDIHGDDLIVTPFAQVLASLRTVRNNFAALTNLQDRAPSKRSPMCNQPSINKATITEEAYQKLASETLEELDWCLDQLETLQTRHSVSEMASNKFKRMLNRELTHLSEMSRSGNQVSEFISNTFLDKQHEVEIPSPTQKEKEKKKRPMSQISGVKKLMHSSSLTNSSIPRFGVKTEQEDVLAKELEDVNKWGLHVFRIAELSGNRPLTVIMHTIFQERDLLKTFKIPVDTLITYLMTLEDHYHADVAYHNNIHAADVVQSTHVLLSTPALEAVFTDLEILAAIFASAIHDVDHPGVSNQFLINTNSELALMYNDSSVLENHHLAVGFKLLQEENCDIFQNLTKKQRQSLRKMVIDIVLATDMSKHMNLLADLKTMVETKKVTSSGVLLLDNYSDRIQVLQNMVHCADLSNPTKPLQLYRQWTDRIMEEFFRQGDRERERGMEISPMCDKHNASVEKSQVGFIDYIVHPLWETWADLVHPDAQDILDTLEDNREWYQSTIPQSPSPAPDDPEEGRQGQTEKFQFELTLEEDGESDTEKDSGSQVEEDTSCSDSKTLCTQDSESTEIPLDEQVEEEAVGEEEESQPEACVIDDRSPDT
Nature of the series: PDE activity two-step radioassay, PDE4D5 lysate. The series is classed as biochemical. On the procedure:
as §1
Cells (~90–100% confluent) were transfected for 48 h with cDNA encoding PDE4B2, PDE4A5, PDE4D5, PDE8A and PDE5, washed with PBS and harvested by using a cell scraper in KHEM buffer (50 mM KCl, 50 mM HEPES; pH 7.2, 10 mM EGTA, 1.92 mM MgCl2, 1 mM dithiothreitol (DTT)) supplemented with protease inhibitor Mini-Complete (Roche, UK). Samples were then frozen on solid CO2, thawed and then manually homogenised, followed by passage through a 26-gauge needle several times to ensure complete cell lysis. Cells were centrifuged at 13,000 rpm for 10 min to remove any unbroken cells, and the resulting supernatant was frozen in solid CO2 and stored at −80 °C until required. […] Protein concentration was determined through Bradford Assay using bovine serum albumin as standard.
PDE activity was determined using a two-step radioassay procedure as described previously. […] IC50 values were calculated using. […]

T1 sequence (Q07343 1-564 isoform Q07343-2): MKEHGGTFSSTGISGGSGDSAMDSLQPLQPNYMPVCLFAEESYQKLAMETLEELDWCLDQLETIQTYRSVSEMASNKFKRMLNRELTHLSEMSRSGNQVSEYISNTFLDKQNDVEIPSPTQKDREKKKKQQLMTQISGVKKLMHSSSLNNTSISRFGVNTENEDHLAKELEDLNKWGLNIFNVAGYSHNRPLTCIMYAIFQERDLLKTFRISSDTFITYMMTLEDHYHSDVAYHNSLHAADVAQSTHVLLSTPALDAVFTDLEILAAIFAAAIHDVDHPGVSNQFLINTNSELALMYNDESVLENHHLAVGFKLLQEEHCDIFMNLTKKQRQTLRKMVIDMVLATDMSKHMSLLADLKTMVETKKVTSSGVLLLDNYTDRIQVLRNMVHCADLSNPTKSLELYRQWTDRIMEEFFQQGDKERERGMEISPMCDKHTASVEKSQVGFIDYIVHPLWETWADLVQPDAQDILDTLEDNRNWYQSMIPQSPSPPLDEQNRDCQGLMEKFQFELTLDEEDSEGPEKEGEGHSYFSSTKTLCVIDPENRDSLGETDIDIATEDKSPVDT

As to `COc1cc2c(cc1OC)CN(C(=O)[C@H](C)N[C@@H](CCc1ccccc1)C(=O)O)[C@H](C(=O)O)C2` [moexiprilat], the brain uptake result in series [1] is listed as “poor uptake by the brain”.
As to `CCCCCCOC(=O)[C@]1(O)C[C@@H]2O[C@@]1(C)n1c3ccccc3c3c4c(c5c6ccccc6n2c5c31)C(=O)NC4` [KT5720], the “effect on Hsp20 phosphorylation induced by moexipril and forskolin” value in series [2] (KT5720 4 μM 20 min before forskolin 10 μM with moexipril 50 μM, 5 min) was “attenuate”.
As for `COc1cc2c(cc1OC)CN(C(=O)Cn1cnc3ccccc3c1=O)[C@H](C(=O)O)C2` (racemic) [Compound 7], the “Hsp20 phosphorylation (serine 16)” value in [2] was “induced Hsp20 phosphorylation”. Also, in series [3], the IC50 worked out at 89 µM. The “cellular cAMP increase (FRET ratio change) over forskolin alone” value in series [4] is “significantly enhanced”.
Regarding `CCOC(=O)[C@H](CCc1ccccc1)N[C@@H](C)C(=O)N1Cc2cc(OC)c(OC)cc2C[C@H]1C(=O)O` [moexipril], the IC50 in [5] was 0.04 µM; in series [3], 38 µM; in [12] (PDE4D5, n = 3) it was 230 µM. Moreover, the “Hsp20 phosphorylation (serine 16)” value in [2] is “significantly increased”. The inhibition of beta-lactamase result in [6] is recorded as “did not inhibit”. Besides, the colloidal aggregation entry in series [7] was “no particles were observed”. Further, the “activity against PDE8A” value in [8] is recorded as “no activity”. Besides, the Cmax is ~50 nM in [9] (conversion of 25 μg/L, read-out: Cmax) and 25 ng/mL in series [9] (one PK assessment). The “activity against PDE5” value in series [10] was “no activity”. Also, the brain uptake result in series [1] is listed as “poor uptake by the brain”. Moreover, the emetogenic activity result in series [11] is listed as “apparently lacking emetogenic activity”. Also, the “fold lower sensitivity to inhibition than PDE4B2” value in series [12] (PDE4D5 vs PDE4B2) is 6 fold. In addition, the “cellular cAMP increase (FRET ratio change) over forskolin alone” value in series [4] is “markedly potentiated; also recorded: significantly enhance”.
Consider `COc1ccc(C2CNC(=O)C2)cc1OC1CCCC1` (stereo not shown) [rolipram], for which the “Hsp20 phosphorylation (serine 16)” value in series [2] is reported as “significantly increased”.
As to `COc1cc2c(cc1OC)CN(C(=O)CCc1c[nH]c3ccccc13)[C@H](C(=O)O)C2` (racemic) [Compound 8], the “Hsp20 phosphorylation (serine 16)” value in [2] was “induced Hsp20 phosphorylation”. Besides, in series [3] (PDE4B2), the “fold better IC50 than moexipril” value was determined as 7 fold. Moreover, half-maximal inhibition in [3] (IC50) was put at 6.9 µM. The “cellular cAMP increase (FRET ratio change) over forskolin alone” value in series [4] was “significantly enhanced”.
On to `COc1ccc([C@]2(C#N)CC[C@@H](C(=O)O)CC2)cc1OC1CCCC1` [cilomilast], for which, in series [1], the brain penetration entry was “limited”.

Broadly, the IC50 is the concentration that gives 50% inhibition. For orientation: Cmax means the highest concentration seen after dosing.
